Read-outs that look alike come from different tables or passages of the source.
What was measured:
in vivo = settings: New Zealand Albino, rabbit, po, 1.5 mg/kg
Method: (§1) New Zealand Albino rabbits (3.0-4.5 kg) were used in this study. The rabbits were kept at a 12/12 hour light/dark cycle with unlimited food and water supply. […] The rabbits were lightly anesthetized by an intramuscular injection of ketamine and xylazine immediately before dosing. In order to compensate for reduced saliva secretion due to anesthesia, the mouths of the rabbits were wetted with a small amount of distilled water (about 1 mL) before sublingual or buccal administration of the orally dissolving films.
(§2) Blood samples were collected periodically at pre-determined time points for 6 hours.
(§3) The pharmacokinetic studies were conducted by three different routes (i.e. oral, sublingual, and buccal administration), and the data were analyzed non-compartmentally by using WinNonlin (Certara USA, Inc., Princeton, N.J., USA).

[1] = ropinirole, cited from earlier work
[2] = cited from earlier work
[3] = In vivo pharmacokinetic study of ropinirole / ROP-ODF; settings: New Zealand Albino, rabbit, po, 1.5 mg/kg
Method: as §1, §2, §3

CCCN(CCC)CCc1cccc2c1CC(=O)N2 [ropinirole, Ropinirole] showed an AUC(0-inf) (in vivo) of 90.5 ng·h/mL, an AUC(0-t) (in vivo) of 65.5 ng·h/mL and a Cmax (in vivo) of 29.9 ± 16.2 ng/mL. The half-life (in vivo) was 2.893 ± 0.0183 h, the Tmax ([1]; after oral administration) was ~1.5 h and the “oral dose excreted unchanged” value ([1]; oral) was 10%. For the same compound, the “protein binding in the plasma” value [2] was 10-39% and the Tmax [3] was 2.38 h.

Reference: patent US20180000725A1, “ORALLY-DISSOLVING FILMS FOR DRUG DELIVERY THROUGH THE ORAL CAVITY” (The Chinese University of Hong Kong, priority 2016, published 2018)
